Measured values taken from ChEMBL document CHEMBL1759874, “Feruloylacetone as the model compound of half-curcumin: synthesis and antioxidant properties” (2011).
Activity calls are given as the source filed them. The calls are words filed in the database; no cut-off is given here.

What was measured:
[1] = Antioxidant activity against hydroxyl radical-induced DNA damage assessed as TBARS production at 0.2 mM after 30 mins; assay type: functional
[2] = Antioxidant activity against protection of autooxidation of linoleic acid at 50 uM by beta-carotene bleaching test; assay type: functional
Erythrocyte [3] = experiment: Antioxidant activity in human erythrocytes assessed as inhibition of hemin-induced hemolysis after 30 mins; assay type: functional, cell-based
[4] = Antioxidant activity against AAPH-induced hemolysis in human erythrocytes assessed as inhibition time; assay type: functional, Erythrocyte
[5] = system: Radical scavenging activity; experiment: Antioxidant activity assessed as DPPH free radical scavenging activity at 50 uM; assay type: functional
[6] = Antioxidant activity against singlet oxygen radicals assessed as decrease of 4-nitroso-N,N-dimethylaniline decolorization after 40 mins by quenching assay; assay type: functional
[7] = Antioxidant activity against AAPH-induced methyl linoleate oxidation assessed as inhibition period at 50 uM by beta-carotene bleaching test; assay type: functional
[8] = Antioxidant activity against AAPH-induced DNA damage assessed as TBARS production; assay type: functional
[9] = Antioxidant activity against AAPH-induced DNA damage assessed as inhibition period for TBARS production; assay type: functional
[10] = Antioxidant activity against AAPH-induced methyl linoleate oxidation at 50 uM after 120 mins by beta-carotene bleaching test; assay type: functional
[11] = Antioxidant activity assessed as ABTS free radical scavenging activity at 50 uM; assay type: functional
[12] = Antioxidant activity against Cu2+/GSH-induced oxidation of DNA assessed as TBARS production at 0.2 mM after 30 mins; assay type: functional
[13] = Antioxidant activity assessed as galvinoxyl free radical scavenging activity at 25 uM; assay type: functional
[14] = Antioxidant activity against singlet oxygen radicals assessed as decrease of 4-nitroso-N,N-dimethylaniline decolorization at up to 240 uM after 40 mins by quenching assay; assay type: functional
Erythrocyte [15] = experiment: Antioxidant activity in human erythrocytes assessed as inhibition of hemin-induced hemolysis at up to 120 uM after 30 mins; assay type: functional, cell-based
[16] = Antioxidant activity against AAPH-induced hemolysis in human erythrocytes assessed as inhibition time at 18 uM; assay type: functional, Erythrocyte
[17] = Antioxidant activity against AAPH-induced hemolysis in human erythrocytes assessed as inhibition time at 36 uM; assay type: functional, Erythrocyte
[18] = Antioxidant activity against singlet oxygen radicals assessed as decrease of 4-nitroso-N,N-dimethylaniline decolorization at 150 uM after 40 mins by quenching assay; assay type: functional
Erythrocyte [19] = experiment: Antioxidant activity against AAPH-induced hemolysis in human erythrocytes at 54 uM; assay type: functional, cell-based
[20] = Antioxidant activity against singlet oxygen radicals assessed as decrease of 4-nitroso-N,N-dimethylaniline decolorization at 250 uM after 40 mins by quenching assay; assay type: functional

| Compound | Activity [1] | Activity [2] | Activity (Erythrocyte [3]) | Time [4] | Activity [5] | Activity [6] | TIME [7] | Activity [8] | TIME [9] | Activity ([10]; TDE = time-dependent effect) | Activity [11] | Activity [13] | Activity (Erythrocyte [15]) | other results |
| --- | --- | --- | --- | --- | --- | --- | --- | --- | --- | --- | --- | --- | --- | --- |
| CC(=O)CC(=O)/C=C/c1ccc(O)c(O)c1 | Active | Active | Dose-dependent effect | 3.92 min | 41.2 µM/min | Dose-dependent effect | 3.73 h | Active | 0.0428 h | tde | 7.56 µM/min | 0.08 µM/min |  | Activity [12]: Active |
| COc1cc(/C=C/C(O)CC(C)O)ccc1O (stereo not given) | Active | Active |  | 2.05 min | 8.57 µM/min |  | 1.95 h | Active | 0.0185 h | tde | 6.26 µM/min | 0.13 µM/min | inactive | Activity [14]: inactive |
| COc1cc(/C=C/C(=O)CC(C)=O)ccc1OCc1ccccc1 | Active | inactive |  | 3.3 min |  | Dose-dependent effect |  | Active |  |  |  |  | inactive | Time [16]: 80 min; Time [17]: 56 min; Activity [18]: Active; Activity (Erythrocyte [19]): Active; Activity [10]: inactive |
| COc1cc(CCC(=O)CC(C)=O)ccc1O | Active | inactive | Dose-dependent effect | 3.48 min | 16.9 µM/min | Dose-dependent effect | 2.67 h | Active | 0.0318 h | tde | 3.85 µM/min | 0.06 µM/min |  |  |
| COc1cc(/C=C/C(=O)CC(C)=O)ccc1O | Active | Active |  | 2.38 min | 22.3 µM/min | Dose-dependent effect | 3.68 h | Active | 0.0237 h | tde | 6.04 µM/min | 0.13 µM/min | inactive | Activity [12]: Active |
| COc1cc(/C=C/C(=O)CC(=O)/C=C/c2ccc(O)c(OC)c2)ccc1O [CURCUMIN] |  |  |  | 3.45 min |  |  |  |  | 0.0405 h |  |  |  |  |  |
| CCOC(=O)/C(=C/c1ccc(O)c(OC)c1)C(C)=O | Active | inactive | Dose-dependent effect | 1.83 min | 7.54 µM/min | Dose-dependent effect |  | Active | 0.0137 h |  | 1.78 µM/min | 0.02 µM/min |  | Activity [20]: Active; Activity [10]: inactive |
